These results are taken from ChEMBL document CHEMBL5154681, “Small Amphiphilic Peptides: Activity Against a Broad Range of Drug-Resistant Bacteria and Structural Insight into Membranolytic Properties” (J Med Chem, 2022).

Data set [1] in a line: Cytotoxicity against HEK293 assessed as cell viability at 250 ug/ml incubated for 24 hrs by microplate spectrophotometer analysis method relative to control. In kind it is toxicity, cell-based. The settings on record: human, HEK293 cells, at 250 µg/mL, read-out: Activity.
Data set [2] relates to Staphylococcus aureus. The experiment in a line: Antibacterial activity against Staphylococcus aureus ATCC 29213 incubated for 24 hrs by microtiter plate method. In kind it is functional. The settings on record: Staphylococcus aureus, ATCC 29213, read-out: MIC.
Data set [3] deals with Lipid bilayer. The experiment in a line: Membrano-lytic effect in mammalian membrane mimic DOPC/cholesterol (10:1) large unilamellar vesicles assessed as calcein leakage measured at 50 microg/ml measured upto 100 mins for every 10 mins by multimode microplate reader assay. Type of data set: cell membranes. The settings on record: dose 50.0 µg/ml.
For the next data set, the system named is Pseudomonas aeruginosa. The experiment in a line: Antibacterial activity against Pseudomonas aeruginosa ATCC 27883 incubated for 24 hrs by microtiter plate method. In kind it is functional. Particulars: Pseudomonas aeruginosa, ATCC 27883, 24 h, read-out: MIC.
In data set [4] the test system is Staphylococcus aureus. The experiment in a line: Bactericidal activity against methicillin resistant Staphylococcus aureus ATCC BAA-1556 assessed as time required for complete reduction of bacterial growth at 4 times MIC by counting formed colonies. In kind it is functional.
Data set [5] is described as follows: Proteolytic stability in human plasma at 100 uM incubated for 24 hrs by Q-TOF LC/MS analysis relative to control. In kind it is ADME, cell-free. The settings on record: read-out: Stability.
For data set [6], the system named is Cell membrane. The experiment in a line: Membrano-lytic effect in cytoplasmic membrane of methicillin resistant Staphylococcus aureus ATCC BAA-1556 assessed as disruption by measuring propidium iodide fluorescence at MIC incubated for 1 hr by FACscan flow cytometer analysis. For orientation: A flow cytometer gives signals particle by particle.
In data set [7] the test system is MRC5. The data set is described as follows: Cytotoxicity against human MRC-5 assessed as cell viability at 250 ug/ml incubated for 24 hrs by microplate spectrophotometer analysis method. Type of data set: toxicity, cell-based. The settings on record: mrc5, 24 h, dose 250 µg/ml.
In data set [8] the test system is Cell membrane. The data set is described as follows: Membrano-lytic effect in cytoplasmic membrane of methicillin resistant Staphylococcus aureus ATCC BAA-1556 assessed as disruption by measuring propidium iodide fluorescence incubated for 1 hr by FACscan flow cytometer analysis. The settings on record: DDE = dose-dependent effect.
Data set [9] deals with HepaRG. The data set is described as follows: Cytotoxicity against human HPRGC10 assessed as cell viability at 250 ug/ml incubated for 24 hrs by microplate spectrophotometer analysis method relative to control. Type of data set: functional. The settings on record: read-out: Activity.
Data set [10] relates to Lipid bilayer. The data set is described as follows: Induction of membrane disruption in bacterial inner membrane mimic DOPC/DOPG (7:3) large unilamellar vesicles assessed as decrease in particle size of liposome at 1:1 compound to lipid ratio measured after 24 hrs by dynamic light scattering analysis. In kind it is cell membranes.
For data set [11], the system named is Staphylococcus aureus. The data set is described as follows: Antibacterial activity against methicillin resistant Staphylococcus aureus ATCC BAA-1556 incubated for 24 hrs by microtiter plate method. Type of data set: functional. Particulars: Staphylococcus aureus, ATCC BAA-1556, 24 h, read-out: MIC.
For data set [12], the system named is Cell membrane. The experiment in a line: Membrano-lytic effect in cytoplasmic membrane of Escherichia coli ATCC BAA-2452 assessed as disruption by measuring propidium iodide fluorescence incubated for 1 hr by FACscan flow cytometer analysis. The settings on record: DDE = dose-dependent effect.
Data set [13] in a line: Proteolytic stability in human plasma at 100 uM incubated for 30 mins by Q-TOF LC/MS analysis relative to control. In kind it is ADME, cell-free. The settings on record: read-out: Stability.
Data set [14] concerns Escherichia coli. The data set is described as follows: Bactericidal activity against Escherichia coli ATCC BAA-2452 assessed as time required for complete reduction of bacterial growth at MIC by counting formed colonies. Type of data set: functional.
Data set [15] has as its system Escherichia coli. The data set is described as follows: Bactericidal activity against Escherichia coli ATCC BAA-2452 assessed as time required for complete reduction of bacterial growth at 4 times MIC by counting formed colonies. In kind it is functional.
Data set [16] relates to Staphylococcus aureus. The data set is described as follows: Bactericidal activity against methicillin resistant Staphylococcus aureus ATCC BAA-1556 assessed as time required for complete reduction of bacterial growth at MIC by counting formed colonies. In kind it is functional.
Data set [17] is described as follows: Hemolytic activity in human RBC assessed as hemolysis incubated for 2 hrs by spectrophotometer analysis. Particulars: human red blood cells (erythrocytes). Type of data set: toxicity, cell-based, Erythrocyte.
Data set [18] has as its system Lipid bilayer. The experiment in a line: Membrano-lytic effect in bacterial inner membrane mimic DOPC/DOPG (7:3) large unilamellar vesicles assessed as calcein leakage measured upto 100 mins for every 10 mins by multimode microplate reader assay. In kind it is cell membranes. The settings on record: dose 5-50 µg/ml, DDE = dose-dependent effect.
For the next data set, the system named is HEK293. The data set is described as follows: Cytotoxicity against HEK293 assessed as cell viability measured after 24 hrs by microplate spectrophotometer analysis. In kind it is toxicity, cell-based. Particulars: human, hek293, 24 h, DDE = dose-dependent effect, dose < 250 µg/ml.
Data set [19] relates to Escherichia coli. The data set is described as follows: Antibacterial activity against Escherichia coli ATCC 25922 incubated for 24 hrs by microtiter plate method. Type of data set: functional. Particulars: Escherichia coli, ATCC 25922, 24 h, read-out: MIC.
The subject of data set [20] is MRC5. The data set is described as follows: Cytotoxicity against human MRC-5 assessed as cell viability measured after 24 hrs by microplate spectrophotometer analysis. The settings on record: mrc5, 24 h, DDE = dose-dependent effect, dose < 250 µg/ml. In kind it is toxicity, cell-based.
In data set [21] the test system is HepaRG. The data set is described as follows: Cytotoxicity against human HPRGC10 assessed as cell viability measured after 24 hrs by microplate spectrophotometer analysis. The settings on record: dose <= 250.0 µg/ml, DDE = dose-dependent effect. In kind it is functional, cell-based.

≈ marks a conversion by molar mass, not a printed value. Calls of active or inactive are those of the source. Square brackets hold non-standard residues; d marks the D form. Peptide text beside a SMILES is read from it. Dip = N[C@H](C(=O)O)C(c1ccccc1)c1ccccc1; 2Nal = N[C@@H](Cc1ccc2ccccc2c1)C(=O)O

The MIC is the smallest concentration in the dilution series that meets the test's criterion for growth inhibition. One may read the HC50 as the concentration giving 50% haemolysis. With `N=C(N)NCCC[C@H](NC(=O)[C@H](CCCNC(=N)N)NC(=O)[C@H](CCCNC(=N)N)NC(=O)[C@@H](N)CCCNC(=N)N)C(=O)N[C@@H](Cc1ccc2ccccc2c1)C(=O)N[C@@H](Cc1ccc2ccccc2c1)C(=O)N[C@@H](Cc1ccc2ccccc2c1)C(=O)O` (H-RRRR[2Nal][2Nal][2Nal]-OH), in data set [1], the viability at 24 h, 250 ug/ml is 69%. In addition, the MIC came to 6.2 µg/mL (≈ 5.02 µM) in the data set on Staphylococcus aureus [2], 25 µg/mL (≈ 20.3 µM) in the data set on Pseudomonas aeruginosa and 6.2 µg/mL (≈ 5.02 µM) in the data set on Staphylococcus aureus [11]. The Activity was 6% with Lipid bilayer [3]; 35% in the data set on Cell membrane [6]; “Non-Toxic” with MRC5 [7]; “Dde” in the data set on Cell membrane [8]; “Dde” with Cell membrane [12]; “Dde” in the data set with Lipid bilayer [18]. In addition, the Time in the data set with Staphylococcus aureus [4] is 2 h; with Escherichia coli [14] it was 4 h; with Escherichia coli [15], 2.5 h; with Staphylococcus aureus [16], 3 h. In addition, the remaining at 24 h, 100 µM in data set [5] is 32%. In addition, in the data set with HepaRG [9], the viability at 250 µg/mL stood at 47%. Also, the outcome in the data set on Lipid bilayer [10] was Active. In data set [13], the remaining at 0.5 h, 100 µM was found to be 62%. The 50% haemolytic concentration (HC50) at 2 h in data set [17] amounted to 130 µg/mL.
Consider `N=C(N)NCCC[C@H](NC(=O)[C@H](CCCNC(=N)N)NC(=O)[C@@H](N)CCCNC(=N)N)C(=O)N[C@@H](CCCNC(=N)N)C(=O)N[C@H](C(=O)N[C@H](C(=O)N[C@H](C(=O)O)C(c1ccccc1)c1ccccc1)C(c1ccccc1)c1ccccc1)C(c1ccccc1)c1ccccc1` (H-RRRR[Dip][Dip][Dip]-OH), for which the MIC came to 6.2 µg/mL (≈ 4.72 µM) with Staphylococcus aureus [2], 12.5 µg/mL (≈ 9.52 µM) in the data set on Pseudomonas aeruginosa, 12.5 µg/mL (≈ 9.52 µM) in the data set on Escherichia coli [19] and 6.2 µg/mL (≈ 4.72 µM) with Staphylococcus aureus [11]. In addition, the Activity entry was “Dde” in the data set on HEK293; 8% in the data set with Lipid bilayer [3]; 35% in the data set with Cell membrane [6]; “Dde” in the data set on MRC5 [20]; “Dde” in the data set on HepaRG [21]; “Dde” in the data set with Cell membrane [8]. In addition, the Activity result in the data set with Cell membrane [12] and with Lipid bilayer [18] was “Dde” throughout. For the same compound, the Time worked out at 2 h with Staphylococcus aureus [4], 4 h in the data set with Escherichia coli [14], 2.5 h with Escherichia coli [15] and 3 h in the data set with Staphylococcus aureus [16]. Besides, the remaining at 24 h, 100 µM in data set [5] is 21%. Also, in the data set on Lipid bilayer [10], the result was Active. The remaining at 0.5 h, 100 µM in data set [13] stood at 69%. Moreover, the concentration for 50% haemolysis (HC50) at 2 h in data set [17] came out at 145 µg/mL.
